Results as given in patent US10214542B2, “Modified macrocyclic compounds” (BAYER PHARMA AKTIENGESELLSCHAFT, priority 2015, dated 2019).
Marks after values point to notes of the source that are not given here.

Assays:
[1] = biological target: T1, human PTEFb (CDK9/Cyclin T1) (Homo sapiens, UniProt P50750); assay: Surface Plasmon Resonance PTEFb (Method 8); type: binding; conditions: 37° C., experimental parameters E; for Target resident time: 1/koff; for koff: read-out: Dissociation rate constant koff
T1 construct: purchased ProQinase, Freiburg, Germany
T1 sequence (P50750 whole entry): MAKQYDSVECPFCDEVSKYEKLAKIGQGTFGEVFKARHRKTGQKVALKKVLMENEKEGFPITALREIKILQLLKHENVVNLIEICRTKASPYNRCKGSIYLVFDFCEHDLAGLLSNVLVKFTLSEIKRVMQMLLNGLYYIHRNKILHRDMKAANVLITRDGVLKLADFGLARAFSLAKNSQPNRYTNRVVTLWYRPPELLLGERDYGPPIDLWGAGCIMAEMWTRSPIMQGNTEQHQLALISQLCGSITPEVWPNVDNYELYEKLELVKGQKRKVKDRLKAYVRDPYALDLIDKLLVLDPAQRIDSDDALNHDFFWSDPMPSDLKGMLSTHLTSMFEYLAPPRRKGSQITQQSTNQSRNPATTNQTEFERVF
T1 sequence (O60563 whole entry partner): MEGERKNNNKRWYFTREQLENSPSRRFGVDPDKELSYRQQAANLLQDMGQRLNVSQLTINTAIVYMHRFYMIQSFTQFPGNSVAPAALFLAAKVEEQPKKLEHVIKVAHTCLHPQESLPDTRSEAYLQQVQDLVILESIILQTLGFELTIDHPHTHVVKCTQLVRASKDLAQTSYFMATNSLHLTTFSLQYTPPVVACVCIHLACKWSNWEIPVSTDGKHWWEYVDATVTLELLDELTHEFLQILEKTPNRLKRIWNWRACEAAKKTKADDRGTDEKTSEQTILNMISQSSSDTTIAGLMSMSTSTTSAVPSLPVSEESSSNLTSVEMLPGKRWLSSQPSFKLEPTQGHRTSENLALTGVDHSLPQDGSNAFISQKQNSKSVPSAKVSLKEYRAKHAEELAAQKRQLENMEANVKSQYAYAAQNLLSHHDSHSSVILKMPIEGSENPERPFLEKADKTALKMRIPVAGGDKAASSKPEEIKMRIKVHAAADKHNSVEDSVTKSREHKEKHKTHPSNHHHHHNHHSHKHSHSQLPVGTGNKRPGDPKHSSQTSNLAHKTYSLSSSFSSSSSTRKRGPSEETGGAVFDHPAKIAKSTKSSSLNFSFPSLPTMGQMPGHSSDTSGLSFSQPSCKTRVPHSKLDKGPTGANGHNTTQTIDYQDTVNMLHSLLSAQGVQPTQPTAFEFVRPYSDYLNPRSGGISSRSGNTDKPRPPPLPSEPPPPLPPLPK

MOLM-13 cells = assay: Proliferation assay, Cell Titre-Glo viability (Method 3); type: cell-based; conditions: Homo sapiens; MOLM-13, 72-hour exposure; read-out: Inhibition of MOLM-13 cell proliferation IC50
Procedure: A2780 human ovarian carcinoma cells (ECACC #93112519) and non-adherent MOLM-13 human acute myeloid leukemia cells (DSMZ ACC 554) were seeded at a density of 3,000 cell/well (A2780) or 5,000 cells/well (MOLM-13) in a 96-well multititer plate in 150 μL of growth medium supplemented 10% fetal calf serum. After 24 hours, cell viability of one plate (zero-point plate) was determined with the Cell Titre-Glo Luminescent Cell Viability Assay (Promega), while the medium of the other plates was supplemented with the test substances in various concentrations (0 μM, as well as in the range of 0.0001-10 μM; the final concentration of the solvent dimethyl sulfoxide was adjusted to 0.1%) using a Hewlett-Packard HP D300 Digital Dispenser. Cell viability was assessed after 72-hour exposure with the Cell
Titre-Glo Luminescent Cell Viability Assay (Promega). IC50 values (inhibitory concentration at 50% of maximal effect) were determined by means of a 4 parameter fit on measurement data which were normalized to vehicle (DMSO) treated cells (=100%) and measurement readings taken immediately before compound exposure (=0%).

CDK2/CycE = biological target: T2, CDK2/CycE (Homo sapiens, UniProt P24941); assay: CDK2/CycE kinase assay (TR-FRET, Method 2a); type: biochemical; conditions: 10 μM ATP
T2 construct: GST; purchased ProQinase GmbH (Freiburg, Germany); host or cells: insect cells (Sf9)
Excerpt: 2a. CDK2/CycE Kinase Assay:
CDK2/CycE-inhibitory activity of compounds of the present invention was quantified employing the CDK2/CycE TR-FRET assay as described in the following paragraphs:
Recombinant fusion proteins of GST and human CDK2 and of GST and human CycE, expressed in insect cells (Sf9) and purified by Glutathion-Sepharose affinity chromatography, were purchased from ProQinase GmbH (Freiburg, Germany). As substrate for the kinase reaction biotinylated peptide biotin-Ttds-YISPLKSPYKISEG (C-terminus in amid form) was used which can be purchased e.g. from the company JERINI Peptide Technologies (Berlin, Germany).
For the assay 50 nl of a 100 fold concentrated solution of the test compound in DMSO was pipetted into a black low volume 384 well microtiter plate (Greiner Bio-One, Frickenhausen, Germany), 2 μl of a solution of CDK2/CycE in aqueous assay buffer [50 mM Tris/HCl pH 8.0, 10 mM MgCl2, 1.0 mM dithiothreitol, 0.1 mM sodium ortho-vanadate, 0.01% (v/v) Nonidet-P40 (Sigma)] were added and the mixture was incubated for 15 min at 22° C. to allow pre-binding of the test compounds to the enzyme before the start of the kinase reaction. […] The concentration of CDK2/CycE was adjusted depending of the activity of the enzyme lot and was chosen appropriate to have the assay in the linear range, typical concentrations were in the range of 130 ng/mL. The reaction was stopped by the addition of 5 μl of a solution of TR-FRET detection reagents (0.2 μM streptavidine-XL665 [Cisbio Bioassays, Codolet, France] and 1 nM anti-RB(pSer807/pSer811)-antibody from BD Pharmingen [#558389] and 1.2 nM LANCE EU-W1024 labeled anti-mouse IgG antibody [Perkin-Elmer, product no. AD0077]) in an aqueous EDTA-solution (100 mM EDTA, 0.2% (w/v) bovine serum albumin in 100 mM HEPES pH 7.5).
The resulting mixture was incubated 1 h at 22° C. to allow the formation of complex between the phosphorylated biotinylated peptide and the detection reagents. Subsequently the amount of phosphorylated substrate was evaluated by measurement of the resonance energy transfer from the Eu-chelate to the streptavidine-XL. Therefore, the fluorescence emissions at 620 nm and 665 nm after excitation at 350 nm was measured in a TR-FRET reader, e.g. a Rubystar (BMG Labtechnologies, Offenburg, Germany) or a Viewlux (Perkin-Elmer). The ratio of the emissions at 665 nm and at […] was taken as the measure for the amount of phosphorylated substrate. The data were normalised (enzyme reaction without inhibitor=0% inhibition, all other assay components but no enzym=100% inhibition).

Target resident time [1] | koff [1] [s⁻¹] | IC50 (MOLM-13 cells) [nM] | IC50 (CDK2/CycE) [nM] | Structure (SMILES)
46.3* min | 0.00036 | 4.1 | 30 | CS(=N)(=O)Cc1cc2cc(c1)OCCCCNc1cc(F)ccc1-c1nc(ncc1F)N2 (racemic) [Example 16, (rac)-16,20-difluoro-9-[(S-methylsulfonimidoyl)methyl]-2,3,4,5-tetrahydro-1H-17,13-(azeno)-7,11-(metheno)-6,1,12,14-benzoxatriazacyclononadecine]
115.7* min | 0.000144 | 13 | 74 | CN1CCCCNc2cc(F)ccc2-c2nc(ncc2F)Nc2cc(CS(C)(=N)=O)cc1c2.O=CO (racemic) [Example 17, (rac)-16,20-difluoro-6-methyl-9-[(S-methylsulfonimidoyl)methyl]-1,2,3,4,5,6-hexahydro-12H-17,13-(azeno)-11,7-(metheno)-1,6,12,14-benzotetraazacyclononadecine; salt with formic acid]
